In patent US4411900A, “Benzhydrylpiperozinyl thiazole derivatives and pharmaceutical composition comprising the same” (Fujisawa Pharmaceutical Co., Ltd., priority 1980, dated 1983):

System: anaphylactic asthma in guinea-pigs
Assay: Antagonism to anaphylactic asthma in guinea-pigs (inhibitory effect from number of surviving animals)
Type: in vivo, guinea-pig (male Hartley strain)
Settings: oral, 30 minutes before egg albumin challenge, survival more than 2 hours after antigen spray, *Dose group: 5 guineapigs (compound D)
Procedure: Equal volumes of a saline solution of egg albumin (200 mg/ml) and of Freund's Complete Ajuvant were mixed and emulsified. Each male New Zealand white strain rabbits, each weighing 2 to 2.5 kg., received an intramuscular injection of 0.5 ml of the emulsion in the left and right thigh regions. One week later, they received an intradermal injection of 0.25 ml of a saline solution of egg albumin (concentration: 20 mg/ml) in the different four sites of the dorsal skin surface three times every other week. Blood samples were collected from the carotid artery one week after the last injection.
The level of anaphylactic anti-egg albumin antibodies in pools of sera were determined by passive cutaneous anaphylaxis (PCA) reactions using shaven Hartley strain test guinea-pigs.
Antiserum was serially diluted (two fold) in saline and 0.1 ml of each antiserum dilution were injected intradermally into the dorsal skin surface of the test guinea-pigs. 24 hours after intradermal sensitization,Egg albumin-specific PCA reactions were elicited by intravenous injection of 10 mg of egg albumin in 1 ml of 1% Evans blue dye dissolved in saline. Reactions were read and recorded as the highest dilution of serum evoking threshold PCA reactivity (5 mm diameter).
Male Hartley strain guinea-pigs, weighing 305 to 400 g, were used. Animals were sensitized by an intravenous injection of rabbit antiserum against egg albumin (4000 PCA titer) with 0.5 ml/animal. After 24 hours, animals were placed individually in a plastic chamber of 5.3 liter volume. An aerosol of 5% egg albumin solution was sprayed in the chamber at a rate of 0.16 ml/min with a commercial nebulizer. The test compounds were given to the animals orally 30 minutes before the challenge with the egg albumin solution. Each dose group consisted of 3 or 5 animals. The inhibitory effect of the test compounds was determined from the number of surviving animals more than 2 hours after spray of the antigen.

Row | SMILES | Inhibitory Effect (Dose 1 mg/kg) | Inhibitory Effect (Dose 10 mg/kg)
1 | CS(=O)(=O)Nc1nc(CN2CCN(C(c3ccccc3)c3ccccc3)CC2)cs1 [Compound A, 4-(4-Benzhydrylpiperazin-1-ylmethyl)-2-methanesulfonamidothiazole] | 100% | 100%
2 | CCS(=O)(=O)Nc1nc(CN2CCN(C(c3ccccc3)c3ccccc3)CC2)cs1 [Compound B, 4-(4-Benzhydrylpiperazin-1-ylmethyl)-2-ethanesulfonamidothiazole] | 67% | 100%
3 | CCCS(=O)(=O)Nc1nc(CN2CCN(C(c3ccccc3)c3ccccc3)CC2)cs1 [Compound C, 4-(4-Benzhydrylpiperazin-1-ylmethyl)-2-propanesulfonamidothiazole] | 100% | 100%
4 | CC(=O)Nc1nc(CCCN2CCN(C(c3ccccc3)c3ccccc3)CC2)cs1 [Compound D, 4-[3-(4-Benzhydrylpiperazin-1-yl)-propyl]-2-acetamidothiazole] | 40% | 100%
